Assay results reported in patent US11247976B2, “Synthetic ligands that modulate the activity of the RhlR quorum sensing receptor” (Wisconsin Alumni Research Foundation, priority 2016, dated 2022).
Entries after “also recorded” stand apart in the source; their conditions may differ.

What was measured:
[1] = target: T1, RhlR (Pseudomonas aeruginosa, UniProt P54292); assay: E. coli RhlR reporter agonism assay (JLD271/pJN105R2/pSC11-rhlI*); format: cell-based, P. aeruginosa; conditions: compound at 10 μM; RhlR activity relative to 1 mM BHL; E. coli reporter
T1 construct: expressed in transfected cells; host or cells: E. coli JLD271 (ΔsdiA) with pJN105R2 (arabinose-induced) and pSC11-rhlI*
T1 sequence (P54292 whole entry): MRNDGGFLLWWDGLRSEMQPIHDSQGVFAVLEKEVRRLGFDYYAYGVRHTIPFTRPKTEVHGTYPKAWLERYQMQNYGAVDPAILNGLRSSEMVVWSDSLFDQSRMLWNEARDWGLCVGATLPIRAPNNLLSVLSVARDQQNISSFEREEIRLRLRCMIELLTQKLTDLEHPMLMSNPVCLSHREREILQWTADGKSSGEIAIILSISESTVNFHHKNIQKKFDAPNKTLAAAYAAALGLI
Description: (§1) All media and reagents for bacterial culture were purchased from commercial sources. Bacteria were cultured in Luria-Bertani broth (LB) at 37° C. with shaking at 200 rpm unless otherwise noted. The bacterial reporter strains used for this study were (i) the heterologous E. coli strain JLD271 (ΔsdiA) harboring the RhlR expression plasmid pJN105R2 and the rhlI-lacZ transcriptional fusion reporter pSC11-rhlI*, (ii) the heterologous E. coli strain JLD271 (ΔsdiA) harboring the LasR expression plasmid pJN105L and the […] transcriptional fusion reporter pSC11, and (iii) the P. aeruginosa strain PAO-JP2 (ΔlasrhlI) harboring the rhlI-gfp transcriptional fusion reporter prhlI-LVAgfp. Reporter strains JLD271/pJN105R2/pSC11-rhlI* and JLD271/pJN105L/pSC11 were grown in LB containing 100 μg/mL ampicillin and 10 μg/mL gentamicin. Freezer stocks of bacterial strains were maintained at −80° C. in 1:1 LB:50% glycerol.
(§2) To evaluate the modulatory activities of library compounds on RhlR and LasR using E. coli reporters, the strains JLD271/pJN105R2/pSC11-rhlI* and JLD271/pJN105L/pSC11 were used, respectively, as previously described.^38, 51 The following modifications were used in the RhlR agonism reporter assay, non-native compounds (10 μM or 1 mM) were compared to 1 mM BHL as the positive control. Briefly, a subculture was prepared by diluting an overnight culture 1:10 with fresh media containing 100 μg/mL ampicillin and 10 μg/mL gentamicin, and was incubated until it had grown to OD600=0.45. In all assays, L-arabinose was added to a final concentration of 4 mg/mL to induce RhlR expression. For RhlR agonism assays, activities of test compounds were measured relative to 1 mM BHL (the concentration required to induce a maximal level of RhlR activity). For RhlR antagonism assays, test compounds were competed against a concentration of BHL approximately equal to its EC50 value (10 μM). Activity was measured relative to 10 μM BHL. Inhibition was calculated by subtracting 100% from the relative activity value. Thus, 0% inhibition mimics represents no competitive displacement of 10 μM BHL by a test compound. In all assays, modifications were made to the standard Miller assay protocol to accommodate the use of the chlorophenol red-β-D-galactopyranoside (CPRG) β-galactosidase substrate. After cell lysis, 150 μL of the aqueous layer was transferred from each well of a solvent-resistant 96-well microtiter plate to the wells of a new clear, flat-bottom 96-well microtiter plate. CPRG (4 mg/mL in phosphate-buffered saline) was added to each well in 25 μL volumes. Plates were incubated at 30° C. until the positive control wells developed a red color (approximately 30 min). The amount of processed CPRG substrate was assessed by measuring the absorbance of each well at 570 nm. Enzymatic activity was calculated using the following equation: adjusted Miller units=1000·Abs570/(OD600·t·V),
(§3) where t is the incubation time of substrate with lysate and V is the volume of culture lysed.
Because LuxR-type receptors are often unstable in solution, preventing the use of in vitro assays to directly assess small molecule agonism and antagonism, reporter gene assays represent a standard method for screening small-molecule libraries for LuxR-type receptor modulation. Previously reported strains for this purpose were used in the current study.^38 Synthetic N-butanoyl L-homoserine lactone (BHL), the native ligand of RhlR, was used as the positive control for receptor activation. Commonly, agonists are measured relative to maximum possible receptor activation within a particular assay medium;^40 because the dose-response curve of BHL is distinctly shallow in these RhlR reporters, a high concentration of BHL is required to maximally activate RhlR. In this study, activation of compounds was measured relative to that elicited by 1 mM BHL (the concentration of BHL used causes no aberrant growth effects in the reporter strain). […]

[2] = target: T1, RhlR; assay: E. coli RhlR reporter antagonism assay vs 10 μM BHL (JLD271/pJN105R2/pSC11-rhlI*); format: cell-based, P. aeruginosa; conditions: for Maximum Inhibition (%): E. coli reporter, relative to activation of 10 μM BHL alone
Description: as §1
as §2, with “For RhlR antagonism assays, test compounds were competed against a concentration of BHL approximately equal to its EC50 value (10 μM).” left out
as §3
The RhlR-modulatory activity of the J library compounds was assessed in a heterologous reporter strain (E. coli JLD271 harboring plasmids pJN105R2 and pSC11-rhlI*) in order to isolate the RhlR receptor from upstream QS regulation (e.g. regulation by LasR). Thus, the extent to which compounds were directly modulating RhlR could be determined. These assays were performed by incubating compound-treated, mid-log phase E. coli reporter cells in 96-well microtiter plates, followed by Miller assay evaluation of ß-galactosidase activity.
RhlR agonism and antagonism screens of each compound were performed initially at 10 μM.

[3] = target: T1, RhlR; assay: P. aeruginosa RhlR reporter agonism assay (PAO-JP2/prhlI-LVAgfp); format: cell-based; conditions: P. aeruginosa reporter compared with E. coli reporter
Description: as §1
(§4) To evaluate the RhlR-modulatory activities of selected compounds in P. aeruginosa, the ΔlasIrhlI strain PAO-JP2 harboring plasmid prhlI-LVAgfp was used as previously reported.^38 Briefly, a subculture was prepared by diluting an overnight culture 1:100 in fresh LB and was grown to OD600=0.3. […] Subculture was treated with 100 nM OdDHL (to induce native expression of RhlR) by adding the appropriate amount of OdDHL stock solution in DMSO. The subculture was then dispensed ([…] aliquots) into each synthetic compound-containing well of the microtiter plate.
(§5) Plates were incubated at 37° C. for 6 h, and GFP production was monitored by using a Synergy 2 plate reader (λex=500 nm, λem=540 nm; BioTek, Winooski, Vt.) and quantified with Gen5 1.05 software (BioTek). The final OD600 for each well was measured to normalize GFP production to cell density. All synthetic compounds were tested in triplicate, and three separate trials were performed with unique cultures. Agonism dose-response analyses were performed by testing compounds over a range of concentrations with the RhlR reporter.
Library compounds J18 and J24, as well as controls BHL and S4, were evaluated for potency in the native genetic background of RhlR by using the P. aeruginosa strain PAO-JP2 (ΔlasIrhlI) harboring the RhlR reporter plasmid prhlI-LVAgfp (Table 3). Because the production of RhlR is dependent on LasR (in LB medium), all assays were performed in the presence of 100 nM OdDHL, enabling immediate transcription of RhlR via LasR activation. […] All compounds also retained similar potencies when screened in the P. aeruginosa background.

[4] = target: T1, RhlR; assay: P. aeruginosa RhlR reporter antagonism assay vs 10 μM BHL (PAO-JP2/prhlI-LVAgfp); format: cell-based
Description: FIGS. 10A and B illustrate exemplary dose-response curves for RhlR antagonism in the E. coli JLD271/pJN105R2/pSC11-rhlI* reporter strain vs. 10 μM BHL (FIG. 10A) and in the P. aeruginosa PAO-JP2/prhlI-LVAgfp reporter strain vs. 10 μM BHL (FIG. 10B).
as §4, §5

[5] = Hydrolytic stability in buffers of varying pH by HPLC; format: physicochemical; conditions: room temperature
Description: To assess the relative stability of the thiolactone and homoserine lactone moieties, stability studies were performed as reported previously,^53 with the following changes. Compounds RN22 and E22 (50 μM) were dissolved in either 1 mM 2-(N-morpholino)-ethanesulfonic acid (MES) buffer at pH 6, or 1 mM tris(hydroxymethyl)-aminomethane (TRIS) buffer at pH 7, pH 8, or pH 9. Solutions were placed static at room temperature, and 150 μL aliquots were taken every two hours for eight hours, then again at 24 hours. Samples were immediately separated via HPLC, and the area under the curve (AUC) at 220 nm was calculated and compared to the area at t=0. […] Degradation of both compounds to the hydrolysis product was confirmed via mass spectrometry of the resulting byproduct peak.
P. aeruginosa media is observed to become more alkaline over time, making the hydrolytic instability of the homoserine lactone head group a concern in developing AHL-type modulators for use in the wild-type organism. […] To evaluate their stability in a more direct assay, the stability of thiolactone RN22 relative to its lactone homolog E22 was monitored over time and at varying pH values using HPLC. The amount of compound RN22 remaining over 24 h was compared to E22. […] Degradation products were confirmed to be the hydrolyzed lactone head groups via mass spectroscopy.

Row | SMILES | activation at 10 µM [1] [%] | IC50 [2] [µM] | RhlR antagonist activity in words ([2]; E. coli reporter vs 10 μM BHL) | Maximum Inhibition (%) [2] [%] | inhibition at 10 µM ([2]; read-out: % inhibition (10 μM), compound at 10 μM in the presence of 10 μM BHL, negative = agonism stronger than 10 μM BHL alone) [%] | inhibition at 1000 µM ([2]; read-out: % inhibition (1 mM), compound at 1 mM in the presence of 10 μM BHL, negative = agonism stronger than 10 μM BHL alone) [%] | RhlR agonist potency in words [3] | IC50 [4] [µM] | Maximum Inhibition (%) ([4]; P. aeruginosa reporter, relative to activation of 10 μM BHL alone) | fold change of IC50 from E. coli to P. aeruginosa reporter ([4]; vs 10 μM BHL) [fold] | increase of maximum inhibition from E. coli to P. aeruginosa reporter ([4]; vs 10 μM BHL) | half-life at 50 μM ([5]; pH 6, 1 mM MES buffer) [h] | half-life at 50 μM ([5]; pH 7, 1 mM TRIS buffer) [h] | half-life at 50 μM ([5]; pH 8, 1 mM TRIS buffer) [h] | half-life at 50 μM ([5]; pH 9, 1 mM TRIS buffer) [h]
1 | O=C(NC1CCCC1)C1CCC1 [RN13] | 0 | 26.7 | potent antagonist activity; also recorded: two-fold increased potency as measured by IC50 over parent compound RN4; also recorded: undesirable non-monotonic behavior | 32 | 24 | 25 | maintained activity between the two different reporters | – | – | – | – | – | – | – | –
2 | O=C(COc1ccc(I)cc1)NC1CCOC1=O (centres unmarked) [Compound E22, reference compound] | – | 17.3 | – | 74 | – | – | – | 23.9 | 96 | ~1.4 | more than 20% | 182 | 48.1 | 10.1 | 2.3
